Key:
sprangletop = assay: Control of aquatic plant species (paddy water); format: in vivo, Leptochloa filiformis; conditions: Leptochloa filiformis, 216 h, nine days, read-out: Percent control; for pest or weed control at 250 g/ha: 0.25 Kg/Ha; for pest or weed control at 1000 g/ha: 1.0 Kg/Ha
Method: (§1) In testing for such utility, the plant species to be tested were transplanted into 16 oz. containers into about 2 inches of soil when they were in the 1-2 inch stage and then flooded to a depth of about 1 inch. An acetone concentrate of the chemical to be tested was then injected into the paddy water, the volume injected being varied as desired to provide the desired concentration. Percent control was evaluated nine days after application.

yellow nutsedge [1] = assay: Control of aquatic plant species (paddy water); format: in vivo, Cyperus esculentus; conditions: Cyperus, 216 h, nine days, read-out: Percent control; for pest or weed control at 250 g/ha: 0.25 Kg/Ha; for pest or weed control at 1000 g/ha: 1.0 Kg/Ha
Method: as §1

rice [2] = assay: Control of aquatic plant species (paddy water); format: in vivo, Oryza sativa; conditions: Oryza sativa, 216 h, nine days, read-out: Percent control; for pest or weed control at 250 g/ha: 0.25 Kg/Ha; for pest or weed control at 1000 g/ha: 1.0 Kg/Ha
Method: as §1

barnyardgrass [3] = assay: Control of aquatic plant species (paddy water); format: in vivo, Echinochloa crusgalli; conditions: Echinochloa crus-galli, 216 h, nine days, read-out: Percent control; for pest or weed control at 250 g/ha: 0.25 Kg/Ha; for pest or weed control at 1000 g/ha: 1.0 Kg/Ha
Method: as §1

[4] = tested on: nitrification of ammonium nitrogen; assay: Suppression of nitrification of ammonium nitrogen in soil; conditions: 27° C.
How it was run: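 Value is % NH4-N remaining after a two-week, 27° C incubation of treated soil held at 1/3 bar tension moisture. Nitrate was measured with an ion-selective electrode after extraction with ammonium sulfate solution and 10 min shaking.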

rice [5] = assay: Postemergent control of plant species; format: in vivo, Oryza sativa; conditions: Oryza sativa, post-emergence, 336 h, read-out: percent postemergent control
Method: (§2) In representative operations, each compound to be utilized in a series of tests is dissolved in acetone to one-half of the final volume (twice the final concentration) to be used and the acetone solution in each case is admixed with an equal volume of water containing 0.1 percent by weight of surface active material. The compositions, generally in the nature of an emulsion, were employed to spray separate respective plant species which had been grown to a 2-4 leaf stage in soil of good nutrient content in a greenhouse. The various beds were positioned side by side and exposed to substantially identical conditions of temperature and light. Each bed was maintained so as to prevent any interaction with test compounds in different seed beds. Other plants were left untreated to serve as controls. After treatment, the plants were maintained for about two weeks under greenhouse conditions conducive for good plant growth and watered as necessary. Control refers to the reduction in growth compared to the observed results of the same untreated species.

yellow nutsedge [6] = assay: Postemergent control of plant species; format: in vivo, Cyperus esculentus; conditions: Cyperus, post-emergence, 336 h, read-out: percent postemergent control
Method: as §2

annual morning glory = assay: Postemergent control of plant species; format: in vivo, Ipomoea spp.; conditions: Ipomoea, post-emergence, 336 h, read-out: percent postemergent control
Method: as §2

velvetleaf = assay: Postemergent control of plant species; format: in vivo, Abutilon theophrasti; conditions: Abutilon theophrasti, post-emergence, 336 h, read-out: percent postemergent control
Method: as §2

barnyardgrass [7] = assay: Postemergent control of plant species; format: in vivo, Echinochloa crusgalli; conditions: Echinochloa crus-galli, post-emergence, 336 h, read-out: percent postemergent control
Method: as §2

yellow foxtail = assay: Postemergent control of plant species; format: in vivo, Setaria lutescens; conditions: Setaria, post-emergence, 336 h, read-out: percent postemergent control
Method: as §2

soybean = assay: Postemergent control of plant species; format: in vivo, Glycine max.; conditions: Glycine max, post-emergence, 336 h, read-out: percent postemergent control
Method: as §2

johnson grass = assay: Postemergent control of plant species; format: in vivo, Sorghum halepense; conditions: Sorghum halepense, post-emergence, 336 h, read-out: percent postemergent control
Method: as §2

rape = assay: Postemergent control of plant species; format: in vivo, Brassica napus; conditions: Brassica napus, post-emergence, 336 h, read-out: percent postemergent control
Method: as §2

jimsonweed = assay: Postemergent control of plant species; format: in vivo, Datura stramonium; conditions: Datura stramonium, post-emergence, 336 h, read-out: percent postemergent control
Method: as §2

wheat = assay: Postemergent control of plant species; format: in vivo, Triticum aestivum; conditions: Triticum aestivum, post-emergence, 336 h, read-out: percent postemergent control
Method: as §2

wild oats = assay: Postemergent control of plant species; format: in vivo, Avena fatua; conditions: Avena fatua, post-emergence, 336 h, read-out: percent postemergent control
Method: as §2

sugar beet = assay: Postemergent control of plant species; format: in vivo, Beta saccharifera; conditions: Beta vulgaris, post-emergence, 336 h, read-out: percent postemergent control
Method: as §2

sorghum = assay: Postemergent control of plant species; format: in vivo, Sorghum vulgare; conditions: Sorghum, post-emergence, 336 h, read-out: percent postemergent control
Method: as §2

pigweed = assay: Postemergent control of plant species; format: in vivo, Amaranthus spp.; conditions: Amaranthus retroflexus, post-emergence, 336 h, read-out: percent postemergent control
Method: as §2

cotton = assay: Postemergent control of plant species; format: in vivo, Gossypium spp.; conditions: Gossypium hirsutum, post-emergence, 336 h, read-out: percent postemergent control
Method: as §2

corn = assay: Postemergent control of plant species; format: in vivo, Zea mays; conditions: Zea mays, post-emergence, 336 h, read-out: percent postemergent control
Method: as §2

crabgrass = assay: Postemergent control of plant species; format: in vivo, Digitaria spp.; conditions: Digitaria sanguinalis, post-emergence, 336 h, read-out: percent postemergent control
Method: as §2

Structure (SMILES) | % NH4-N Remaining After 2 Weeks Incubation ([4]; 1 ppm) [%] | % NH4-N Remaining After 2 Weeks Incubation ([4]; 0.06 ppm) [%] | % NH4-N Remaining After 2 Weeks Incubation ([4]; 0.25 ppm) [%] | plant injury at 500 ppm (rice [5]) [%] | pest or weed control at 500 ppm (yellow nutsedge [6]) [%] | pest or weed control at 500 ppm (annual morning glory) [%] | pest or weed control at 500 ppm (velvetleaf) [%] | pest or weed control at 500 ppm (barnyardgrass [7]) [%] | pest or weed control at 500 ppm (yellow foxtail) [%] | plant injury at 500 ppm (soybean) [%] | pest or weed control at 500 ppm (johnson grass) [%] | plant injury at 500 ppm (rape) [%] | pest or weed control at 500 ppm (jimsonweed) [%] | plant injury at 500 ppm (wheat) [%] | pest or weed control at 500 ppm (wild oats) [%] | plant injury at 500 ppm (sugar beet) [%] | % NH4-N Remaining After 2 Weeks Incubation ([4]; 4 ppm) [%] | plant injury at 500 ppm (sorghum) [%] | pest or weed control at 500 ppm (pigweed) [%] | plant injury at 500 ppm (cotton) [%] | also measured
Cc1cc(C)n2nc(S(=O)(=O)Nc3ccccc3C)nc2n1 [Compound 2] | 39 |  |  |  |  |  |  |  |  |  |  |  |  |  |  |  |  |  |  |  | pest or weed control at 2000 g/ha (sprangletop; 2.0 Kg/Ha): 99%; pest or weed control at 2000 g/ha (yellow nutsedge [1]; 2.0 Kg/Ha): 93%; pest or weed control at 2000 g/ha (rice [2]; 2.0 Kg/Ha): 97%; pest or weed control at 2000 g/ha (barnyardgrass [3]; 2.0 Kg/Ha): 97%; % NH4-N Remaining After 2 Weeks Incubation ([4]; 0.01 ppm): 0%; % NH4-N Remaining After 2 Weeks Incubation ([4]; 0.1 ppm): 0%; % NH4-N Remaining After 2 Weeks Incubation ([4]; 10 ppm): 78%
CSc1ccccc1NS(=O)(=O)c1nc2nc(C)cc(C)n2n1 [Compound 9] | 59 |  |  |  |  |  |  |  |  |  |  |  |  |  |  |  |  |  |  |  | pest or weed control at 250 g/ha (sprangletop): 80%; pest or weed control at 1000 g/ha (sprangletop): 97%; pest or weed control at 250 g/ha (yellow nutsedge [1]): 30%; pest or weed control at 1000 g/ha (yellow nutsedge [1]): 85%; pest or weed control at 250 g/ha (rice [2]): 0%; pest or weed control at 1000 g/ha (rice [2]): 25%; pest or weed control at 250 g/ha (barnyardgrass [3]): 93%; pest or weed control at 1000 g/ha (barnyardgrass [3]): 99%; % NH4-N Remaining After 2 Weeks Incubation ([4]; 0.01 ppm): 0%; % NH4-N Remaining After 2 Weeks Incubation ([4]; 0.1 ppm): 14%; % NH4-N Remaining After 2 Weeks Incubation ([4]; 10 ppm): 88%
Cc1cc(C)n2nc(S(=O)(=O)Nc3ccccc3S(=O)(=O)N(C)C)nc2n1 [Compound 15] | 54 | 1 | 23 |  |  |  |  |  |  |  |  |  |  |  |  |  |  |  |  |  | pest or weed control at 4000 g/ha (sprangletop; 4.0 Kg/Ha): 0%; pest or weed control at 4000 g/ha (yellow nutsedge [1]; 4.0 Kg/Ha): 70%; pest or weed control at 4000 g/ha (rice [2]; 4.0 Kg/Ha): 35%; pest or weed control at 4000 g/ha (barnyardgrass [3]; 4.0 Kg/Ha): 25%; % NH4-N Remaining After 2 Weeks Incubation ([4]; 0.125 ppm): 0%; % NH4-N Remaining After 2 Weeks Incubation ([4]; 0.5 ppm): 42%
O=S(=O)(Nc1c(Cl)cccc1Cl)c1nc2ncc(Cl)cn2n1 [Compound 114] |  |  |  |  |  |  |  |  |  |  |  |  |  |  |  |  |  |  |  |  | pest or weed control at 250 g/ha (sprangletop): 0%; pest or weed control at 1000 g/ha (sprangletop): 0%; pest or weed control at 250 g/ha (yellow nutsedge [1]): 65%; pest or weed control at 1000 g/ha (yellow nutsedge [1]): 90%; pest or weed control at 250 g/ha (rice [2]): 0%; pest or weed control at 1000 g/ha (rice [2]): 70%; pest or weed control at 250 g/ha (barnyardgrass [3]): 80%; pest or weed control at 1000 g/ha (barnyardgrass [3]): 95%
COC(=O)c1cccc(C)c1N(C)S(=O)(=O)c1nc2nc(C)cc(C)n2n1 [Compound 261] | 21 | 0 | 0 | 0 | 0 | 90 | 95 | 20 | 95 | 90 | 100 | 95 | 95 | 0 | 0 | 90 | 18 | 30 | 65 | 60 | plant injury at 500 ppm (corn): 0%; pest or weed control at 500 ppm (crabgrass): 10%
C=CCN(c1c(Cl)cccc1Cl)S(=O)(=O)c1nc2nc(C)cc(C)n2n1 [Compound 263] | 87 | 0 | 0 | 85 | 0 | 80 | 40 | 40 | 95 | 0 | 100 | 100 | 80 | 0 | 0 | 100 | 11 | 70 | 90 | 50 | plant injury at 500 ppm (corn): 0%; pest or weed control at 500 ppm (crabgrass): 90%
Cc1cc(C)n2nc(S(=O)(=O)N(Cc3ccccc3)c3c(Cl)cccc3Cl)nc2n1 [Compound 265] | 0 | 0 | 0 | 0 | 0 | 60 | 0 | 0 | 0 | 40 | 0 | 60 | 0 | 0 | 0 | 80 | 17 | 0 | 70 | 0 | plant injury at 500 ppm (corn): 0%; pest or weed control at 500 ppm (crabgrass): 0%
CCOC(=O)CN(c1c(C)cccc1C(=O)OC)S(=O)(=O)c1nc2nc(C)cc(C)n2n1 [Compound 266] | 2 | 0 | 0 | 40 | 0 | 85 | 75 | 75 | 80 | 80 | 0 | 75 | 90 | 0 | 0 | 30 | 13 | 0 | 25 | 10 | plant injury at 500 ppm (corn): 0%; pest or weed control at 500 ppm (crabgrass): 70%

— US4740233A, “Substituted 1,2,4-triazolo[1,5-a]-pyrimidine-2-sulfonamides and compositions and methods of controlling undesired vegetation and suppressing the nitrification of ammonium nitrogen in soil” (The Dow Chemical Company, priority 1986, dated 1988)
